The source made the active and inactive calls.
Tests used:
[1] = reduction of Shn3 3'UTR-driven luciferase in osteoblasts – cell-based, Clone20 osteoblasts, firefly luciferase, cherry-picked, dose response (AID 624132); format: functional;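 also: firefly luciferase luminescence from reporter carrying the Shn3 3'UTR in osteoblasts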
Cytochrome P450 1A2 = biological target: T1, Cytochrome P450 1A2 (Homo sapiens, UniProt P05177);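 also: PubChem cytochrome P450 panel assay, CYP1A2 panel member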
T1 sequence (P05177 whole entry): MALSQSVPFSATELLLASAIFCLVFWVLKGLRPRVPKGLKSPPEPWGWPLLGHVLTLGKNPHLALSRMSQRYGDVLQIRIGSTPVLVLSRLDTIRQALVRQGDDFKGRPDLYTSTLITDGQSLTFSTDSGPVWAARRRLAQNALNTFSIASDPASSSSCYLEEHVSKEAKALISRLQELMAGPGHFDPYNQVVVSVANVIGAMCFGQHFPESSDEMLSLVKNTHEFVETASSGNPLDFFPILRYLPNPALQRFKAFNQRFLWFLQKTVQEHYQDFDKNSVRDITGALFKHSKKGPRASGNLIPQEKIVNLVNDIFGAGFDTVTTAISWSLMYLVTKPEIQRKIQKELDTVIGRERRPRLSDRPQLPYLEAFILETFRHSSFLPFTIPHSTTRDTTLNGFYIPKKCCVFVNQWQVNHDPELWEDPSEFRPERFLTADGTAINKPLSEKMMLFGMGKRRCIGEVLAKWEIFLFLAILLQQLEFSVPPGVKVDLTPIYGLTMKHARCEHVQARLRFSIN

[2] = viability loss in CEM21 cells – cell-based, CellTiter-Glo luminescence, cherry-picked, cytotoxicity control for viral fusion inhibitor project, dose response (AID 652042); format: functional;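 also: potency for signal decrease meaning cytotoxicity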
[3] = non-specific 3'UTR reporter inhibition in Clone20-Shn3RL – cell-based, Renilla luciferase, cherry-picked, counter-screen for Shn3 inhibitor project, dose response (AID 624133); format: functional
[4] = blockers of HIV-1 ZM109 envelope-driven cell-cell fusion – HeLa effector, CEM target cells, luciferase, cherry-pick, dose response (AID 652058); format: functional, cell-based;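 also: luciferase signal from HIV-1 Env mediated cell-cell fusion of effector and target cells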
[5] = viability loss in Vero cells – cytotoxicity control for Vif-APOBEC3G degradation inhibitor project, dose response (AID 1117358); format: functional; conditions: Vero
[6] = blockers of HIV-1 envelope-mediated cell-cell fusion – cherry-pick, dose response (AID 652057); format: functional, cell-based
Cytochrome P450 2C9 = Cytochrome P450 2C9 (Homo sapiens, UniProt P11712)
[7] = microbe, parasite or virus in culture; format: functional; conditions: Mycobacterium tuberculosis
[8] = off-target signal loss in HeLa-CEM21 co-culture – HeLa F-luc CTL cells, cherry-picked, counter-screen for HIV-1 Env fusion inhibitor project, dose response (AID 652040); format: functional, cell-based;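 also: potency for signal decrease marking cytotoxic or nonspecific inhibition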
[9] = HIV-1 AD8 envelope cell-cell fusion blockers – cherry-pick, dose response (AID 652062); format: functional, cell-based;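 also: luciferase signal from cell-cell fusion driven by HIV-1 clade B AD8 Env; potency is for inhibitors of fusion seen as a drop in luminescence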
[10] = loss of viability in HepG2 cells – cell-based, CellTiter-Glo, cherry-picked, cytotoxicity control for Shn3 inhibitor project, dose response (AID 624134); format: functional
Cytochrome P450 2D6 = Cytochrome P450 2D6 (Homo sapiens, UniProt P10635);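 also: CYP2D6 member of a cytochrome P450 panel assay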
Vero = assay: cells; format: functional; conditions: Chlorocebus sabaeus
Protein RecA = biological target: T2, Protein RecA (Mycobacterium tuberculosis, UniProt P9WHJ3); assay: Fluorescence Cell-Free Homogeneous Dose Retest to Identify Inhibitors of RecA-Intein Splicing Activity. [Related pubchem assays (depositor defined):AID2097, AID2223, AID489010, AID492950]; format: functional
T2 sequence (P9WHJ3 whole entry): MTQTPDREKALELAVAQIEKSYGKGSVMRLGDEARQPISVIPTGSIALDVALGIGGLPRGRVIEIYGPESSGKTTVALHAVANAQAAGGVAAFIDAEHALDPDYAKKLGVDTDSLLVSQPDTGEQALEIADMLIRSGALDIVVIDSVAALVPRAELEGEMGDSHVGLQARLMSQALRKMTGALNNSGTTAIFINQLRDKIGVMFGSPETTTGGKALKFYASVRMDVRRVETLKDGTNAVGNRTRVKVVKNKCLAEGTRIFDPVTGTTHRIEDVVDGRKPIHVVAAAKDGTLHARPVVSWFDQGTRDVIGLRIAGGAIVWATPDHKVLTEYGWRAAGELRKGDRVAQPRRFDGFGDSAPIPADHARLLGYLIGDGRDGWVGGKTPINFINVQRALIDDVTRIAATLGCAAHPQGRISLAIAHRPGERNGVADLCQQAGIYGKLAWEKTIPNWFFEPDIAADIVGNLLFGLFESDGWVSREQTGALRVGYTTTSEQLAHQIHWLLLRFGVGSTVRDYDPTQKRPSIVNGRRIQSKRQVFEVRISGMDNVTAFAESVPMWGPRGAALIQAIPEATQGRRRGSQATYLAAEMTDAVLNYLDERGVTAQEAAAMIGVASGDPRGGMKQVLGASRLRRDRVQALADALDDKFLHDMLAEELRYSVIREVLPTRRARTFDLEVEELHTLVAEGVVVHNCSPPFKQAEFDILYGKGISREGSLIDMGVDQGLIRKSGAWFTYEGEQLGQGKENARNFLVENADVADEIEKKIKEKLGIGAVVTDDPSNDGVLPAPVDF

[11] = biological target: T3, Hepatocyte nuclear factor 4-alpha (Homo sapiens, UniProt P41235); format: functional, cell-based;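 also: biochemical luminescence-based dose-response counterscreen measuring inhibition of HNF4 dimerization, run alongside a screen for blockers of ABHD5–perilipin-5 interaction; split luciferase complementation of HNF4 fusion proteins in cell lysate measuring dimerization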
T3 sequence (P41235 whole entry): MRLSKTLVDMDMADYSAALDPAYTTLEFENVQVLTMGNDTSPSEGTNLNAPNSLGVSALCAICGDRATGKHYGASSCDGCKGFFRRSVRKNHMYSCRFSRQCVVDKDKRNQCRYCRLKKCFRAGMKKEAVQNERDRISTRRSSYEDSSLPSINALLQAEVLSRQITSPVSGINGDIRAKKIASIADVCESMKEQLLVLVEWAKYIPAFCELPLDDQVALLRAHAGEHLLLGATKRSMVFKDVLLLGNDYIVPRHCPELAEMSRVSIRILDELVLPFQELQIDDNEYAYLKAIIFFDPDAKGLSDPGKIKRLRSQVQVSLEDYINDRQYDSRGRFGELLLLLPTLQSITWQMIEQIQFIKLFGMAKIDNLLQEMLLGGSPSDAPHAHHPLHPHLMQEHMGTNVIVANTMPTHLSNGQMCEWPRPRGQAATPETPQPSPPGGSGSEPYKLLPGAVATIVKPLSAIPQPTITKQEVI

[12] = OV-90 cell viability loss – plate reader, dry powder, SA8, PAX8 inhibitor project, dose response (AID 743149); format: functional, cell-based
[13] = biological target: T4, Replicative DNA helicase DnaB (Mycobacterium tuberculosis, UniProt P9WMR3); assay: DnaB intein splicing inhibitors, dose response, biochemical, cell-free fluorescence (AID 449749); format: functional
T4 sequence (P9WMR3 whole entry): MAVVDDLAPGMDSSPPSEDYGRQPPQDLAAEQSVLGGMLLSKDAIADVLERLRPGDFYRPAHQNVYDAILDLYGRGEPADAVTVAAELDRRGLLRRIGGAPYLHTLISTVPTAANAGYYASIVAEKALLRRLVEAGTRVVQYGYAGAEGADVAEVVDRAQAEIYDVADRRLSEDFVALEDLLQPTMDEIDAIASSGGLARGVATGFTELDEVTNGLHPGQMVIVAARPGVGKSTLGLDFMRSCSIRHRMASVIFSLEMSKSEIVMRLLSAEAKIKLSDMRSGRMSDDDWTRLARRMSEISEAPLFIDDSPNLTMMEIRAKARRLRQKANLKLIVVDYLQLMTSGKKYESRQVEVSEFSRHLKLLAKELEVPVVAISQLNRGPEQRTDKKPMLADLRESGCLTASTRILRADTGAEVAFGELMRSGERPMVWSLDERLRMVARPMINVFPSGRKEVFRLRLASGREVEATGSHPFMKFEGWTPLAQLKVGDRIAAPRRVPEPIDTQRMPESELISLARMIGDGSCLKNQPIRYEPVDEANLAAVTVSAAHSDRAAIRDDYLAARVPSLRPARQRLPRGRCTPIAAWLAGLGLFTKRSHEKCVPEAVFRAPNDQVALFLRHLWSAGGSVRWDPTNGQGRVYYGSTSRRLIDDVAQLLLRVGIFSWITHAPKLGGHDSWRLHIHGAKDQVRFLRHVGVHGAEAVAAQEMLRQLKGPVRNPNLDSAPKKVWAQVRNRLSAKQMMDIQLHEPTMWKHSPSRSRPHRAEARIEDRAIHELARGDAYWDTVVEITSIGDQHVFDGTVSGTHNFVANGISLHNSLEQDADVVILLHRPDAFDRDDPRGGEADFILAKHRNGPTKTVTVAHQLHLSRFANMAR

[14] = inhibitors acting on PAX2 in cells – cell-based, plate reader, dry powder samples, selectivity assay for PAX8 inhibitor project, dose response (AID 743048); format: functional;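 also: HEK293 cells carrying a WT1 promoter luciferase reporter driven by expressed Pax2; potency is for inhibition of Pax2 driven reporter signal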
[15] = toxicity toward immortalized ovarian surface epithelium – cell-based, plate reader, dry powder samples, cytotoxicity control for PAX8 inhibitor project, dose response (AID 743045); format: functional
[16] = PAX5 cellular inhibition readout – cell-based, plate reader, dry powder samples, selectivity assay for PAX8 inhibitor project, dose response (AID 743047); format: functional;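 also: HEK293 cells carrying a Pax5 driven CD19 promoter luciferase reporter; potency of inhibitors that lower reporter luminescence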
[17] = OVCAR-3 cell viability loss – plate reader, dry powder samples, PAX8 inhibitor project, dose response (AID 743044); format: functional, cell-based
INS1 = assay: INS-1E survival protection against cytokine death – cell-based, luminescence, retest, dose response (AID 449756); format: functional; conditions: Rattus norvegicus;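 also: cell death triggered by IL-1 beta plus TNF-alpha plus IFN-gamma mixture; protective hits raise ATP signal compared with cytokine alone wells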
[18] = A2780 cell killing – plate reader, dry powder samples, cytotoxicity control, dose response (AID 743046); format: functional, cell-based
[19] = PAX8-dependent cell viability loss – plate reader, dry powder, dose response (AID 743049); format: functional, cell-based
[20] = COV434 cell viability loss – plate reader, dry powder, SA7, cytotoxicity control for PAX8 inhibitor project, dose response (AID 743145); format: functional, cell-based
[21] = IGROV1 cell killing – plate reader, dry powder samples, PAX8 inhibitor project, dose response (AID 743043); format: functional, cell-based; conditions: IGROV-1
[22] = OVCAR4 cell viability loss – plate reader, dry powder, SA11, cytotoxicity control for PAX8 inhibitor project, dose response (AID 743150); format: functional, cell-based; conditions: OVCAR-4
Paired box protein Pax-8 = Paired box protein Pax-8 (Homo sapiens, UniProt Q06710); assay: PAX8 transcriptional activity inhibition in RMG-I – RMG-I cells, luciferase, cherry-pick, dose response (AID 687027); format: functional, cell-based;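 also: luciferase reporter driven by Pax8 target thyroperoxidase promoter measured by SteadyGlo luminescence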
[23] = COV362 cell viability loss – plate reader, dry powder, SA12, cytotoxicity control for PAX8 inhibitor project, dose response (AID 743144); format: functional, cell-based
[24] = biological target: Neurotensin receptor type 1 (Homo sapiens, UniProt P30989); format: functional;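 also: Image-based confirmatory dose-response assay measuring agonist activity at NTR1; NTR1-expressing U2OS osteosarcoma cells imaged for beta-arrestin GFP spot formation; agonist potency where compounds increase beta-arrestin recruitment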
[25] = Luminescence-based cell-based high throughput dose response assay to identify activators of the DAF-12 from the parasite S. stercoralis (ssDAF-12).; format: functional
[26] = viability loss in HepG2 hepatoma cells – cell-based, ATP luminescence, cherry-pick, activator set 2, cytotoxicity control, dose response (AID 1053143); format: functional
[27] = biological target: T5, Oxysterols receptor LXR-beta (Homo sapiens, UniProt P55055); assay: LXR agonists, Gal4 luciferase reporter, dose response, counter-screen for ssDAF-12 agonist project, cell-based, luminescence, HEK293, S. stercoralis campaign (AID 720737); format: functional; conditions: read-out: IC50 (the source's name)
T5 sequence (P55055 whole entry): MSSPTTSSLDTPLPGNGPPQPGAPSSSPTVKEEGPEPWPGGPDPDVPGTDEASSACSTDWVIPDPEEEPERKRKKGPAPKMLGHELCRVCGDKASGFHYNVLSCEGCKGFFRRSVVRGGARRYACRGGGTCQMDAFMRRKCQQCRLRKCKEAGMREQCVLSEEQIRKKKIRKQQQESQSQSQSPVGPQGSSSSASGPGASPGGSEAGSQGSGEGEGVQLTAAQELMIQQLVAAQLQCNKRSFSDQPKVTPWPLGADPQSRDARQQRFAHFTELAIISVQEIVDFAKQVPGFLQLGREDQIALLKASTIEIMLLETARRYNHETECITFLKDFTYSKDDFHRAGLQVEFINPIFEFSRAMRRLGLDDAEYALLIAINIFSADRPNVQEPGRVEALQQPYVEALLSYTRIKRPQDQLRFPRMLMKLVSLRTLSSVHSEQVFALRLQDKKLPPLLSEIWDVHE

[28] = biological target: T5, Oxysterols receptor LXR-beta; format: functional, cell-based

Cytochrome P450 2D6, sequence (P10635 whole entry): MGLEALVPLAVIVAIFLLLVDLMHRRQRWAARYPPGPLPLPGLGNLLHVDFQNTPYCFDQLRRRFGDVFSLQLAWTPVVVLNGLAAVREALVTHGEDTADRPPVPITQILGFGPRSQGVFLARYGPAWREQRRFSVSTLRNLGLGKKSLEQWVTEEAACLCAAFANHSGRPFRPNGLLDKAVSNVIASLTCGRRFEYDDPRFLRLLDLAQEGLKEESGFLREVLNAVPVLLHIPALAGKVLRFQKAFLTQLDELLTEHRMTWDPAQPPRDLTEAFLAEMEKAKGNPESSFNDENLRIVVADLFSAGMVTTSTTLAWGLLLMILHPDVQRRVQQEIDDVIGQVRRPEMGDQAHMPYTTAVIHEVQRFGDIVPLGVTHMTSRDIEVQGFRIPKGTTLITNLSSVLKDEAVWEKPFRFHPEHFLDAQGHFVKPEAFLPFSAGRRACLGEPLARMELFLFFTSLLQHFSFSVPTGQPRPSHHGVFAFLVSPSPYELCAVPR
Paired box protein Pax-8, sequence (Q06710 whole entry): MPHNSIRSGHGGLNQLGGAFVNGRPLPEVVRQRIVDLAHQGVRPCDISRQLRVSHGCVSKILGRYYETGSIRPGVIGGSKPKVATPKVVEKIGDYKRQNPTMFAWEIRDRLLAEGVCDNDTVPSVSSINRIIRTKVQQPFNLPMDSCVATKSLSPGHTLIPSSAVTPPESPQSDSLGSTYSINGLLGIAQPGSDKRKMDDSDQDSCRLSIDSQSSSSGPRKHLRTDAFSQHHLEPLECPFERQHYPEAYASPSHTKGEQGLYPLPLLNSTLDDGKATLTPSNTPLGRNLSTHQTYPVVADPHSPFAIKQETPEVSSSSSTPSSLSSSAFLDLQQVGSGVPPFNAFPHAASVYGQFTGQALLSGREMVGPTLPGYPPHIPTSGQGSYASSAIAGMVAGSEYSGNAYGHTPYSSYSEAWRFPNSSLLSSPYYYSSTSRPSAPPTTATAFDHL
Neurotensin receptor type 1, sequence (P30989 whole entry): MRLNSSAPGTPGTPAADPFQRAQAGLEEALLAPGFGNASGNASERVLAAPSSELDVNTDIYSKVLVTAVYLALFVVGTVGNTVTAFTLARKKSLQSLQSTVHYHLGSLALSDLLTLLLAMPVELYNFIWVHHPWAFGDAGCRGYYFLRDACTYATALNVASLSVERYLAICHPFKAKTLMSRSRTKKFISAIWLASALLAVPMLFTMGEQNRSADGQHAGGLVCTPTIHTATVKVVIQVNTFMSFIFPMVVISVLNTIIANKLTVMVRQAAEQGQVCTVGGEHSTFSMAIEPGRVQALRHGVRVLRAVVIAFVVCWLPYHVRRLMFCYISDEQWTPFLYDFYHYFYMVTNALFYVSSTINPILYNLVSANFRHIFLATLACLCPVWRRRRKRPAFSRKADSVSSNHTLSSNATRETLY
Cytochrome P450 2C9, sequence (P11712 whole entry): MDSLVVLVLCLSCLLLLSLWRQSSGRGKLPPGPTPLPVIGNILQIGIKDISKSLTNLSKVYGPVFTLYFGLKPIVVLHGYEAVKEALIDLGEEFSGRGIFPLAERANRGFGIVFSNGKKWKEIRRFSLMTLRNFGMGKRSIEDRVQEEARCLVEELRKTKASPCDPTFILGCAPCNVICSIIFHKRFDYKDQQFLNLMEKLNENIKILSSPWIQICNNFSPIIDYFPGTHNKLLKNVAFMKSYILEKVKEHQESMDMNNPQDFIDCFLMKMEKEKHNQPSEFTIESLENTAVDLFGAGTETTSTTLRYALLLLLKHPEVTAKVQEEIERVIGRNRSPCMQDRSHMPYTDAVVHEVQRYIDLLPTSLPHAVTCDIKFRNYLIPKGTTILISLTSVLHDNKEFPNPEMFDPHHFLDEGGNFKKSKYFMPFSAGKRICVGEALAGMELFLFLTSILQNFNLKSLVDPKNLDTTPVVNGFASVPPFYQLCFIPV

Nc1nc(Cl)cc(N2CCC(c3cc(-c4ccc(Cl)cc4Cl)[nH]n3)CC2)n1
AC50 [1]: 4.94 µM (active) | AC50 (Cytochrome P450 1A2): 6.31 µM (inconclusive) | AC50 [2]: 36.1 µM (active) | AC50 [3]: 5.61 µM (active) | AC50 [4]: 0.394 µM (active) | CC50 [5]: > 40 µM (active) | AC50 [6]: 18.5 µM (active) | AC50 (Cytochrome P450 2C9): 22.4 µM (inconclusive) | CC50 [7]: > 40 µM (active) | AC50 [8]: > 70 µM (inactive) | AC50 [9]: 16.6 µM (active) | AC50 [10]: 62 µM (active) | AC50 (Cytochrome P450 2D6): 12.6 µM (inconclusive)

O=C(Nc1ccc(Cl)cc1)/C(=C/c1cccc(O)c1)c1nc2ccccc2s1
CC50 (Vero): 2.37 µM (active) | EC50 (Protein RecA): 0.481 µM (active) | AC50 [1]: 3.53 µM (active) | IC50 [11]: 4.66 µM (active) | AC50 [12]: 4.14 µM (active) | AC50 [3]: 9.54 µM (active) | AC50 [13]: > 380 µM (inconclusive) | AC50 [14]: 12.8 µM (active) | AC50 [15]: 11.5 µM (active) | AC50 [16]: 7.08 µM (active) | AC50 [17]: 8.14 µM (active) | AC50 (INS1): 3.7 µM (active) | AC50 [18]: 15.1 µM (active) | AC50 [19]: 4.02 µM (active) | AC50 [20]: 9.35 µM (active) | AC50 [21]: 30.7 µM (active) | AC50 [22]: 13.7 µM (active) | AC50 (Paired box protein Pax-8): 3.92 µM (active) | AC50 [23]: 5.28 µM (active) | AC50 [10]: 9.66 µM (active) | EC50 [24]: 6.69 µM (active)

Oc1ccccc1-c1cc(-c2ccccc2)[nH]n1
IC50 [25]: > 67.4 µM (inactive) | AC50 [26]: 26 µM (active) | EC50 [27]: > 67.4 µM (inactive) | EC50 [28]: > 67.4 µM (inactive) | EC50 (cells): > 67.4 µM (inactive)

Cc1ccccc1C(=O)N/N=C1/SCC(=O)N1Cc1ccccc1
IC50 [25]: > 67.5 µM (inactive) | EC50 [27]: > 67.5 µM (inactive)

C=CCOc1ccc(Br)cc1/C=N/O
CC50 [5]: 2.72 µM (active)
